Measured values from patent publication US12123048B2, “Fluorinated 4′-alkylumbelliferyl a-D-glucopyranosides, biological sterilization indicators including the same and methods of using the same” (3M INNOVATIVE PROPERTIES COMPANY, priority 2018, dated 2024).

Assay: Measurement of enzyme substrate degradation (100° C. for 15 minutes) by fluorescence
Type: physicochemical
Conditions: no spores, read at 60° C.
Procedure: Luria-Bertani (LB) broth was prepared by dissolving tryptone (10 g/L), yeast extract (5 g/L), and NaCl (5 g/L) in deionized water. In the examples, 6′-fluoro-4′-methylumbelliferyl α-D-glucopyranoside (0.3 mg/mL) or 5′-fluoro-4′-methylumbelliferyl α-D-glucopyranoside (0.3 mg/mL) was added to the broth. In the comparative examples, 4′-methylumbelliferyl α-D-glucopyranoside (MUG) (0.3 mg/mL) or 6′,8′-Difluoro-4′-methylumbelliferyl α-D-glucopyranoside (0.3 mg/mL) was added to the broth. The pH of the broth was adjusted to either pH 6, pH 7, pH 8, or pH 9 using 0.1 N hydrochloric acid or 1N sodium hydroxide solutions. The broth was passed through a 0.22 micron filter prior to use.
(§1) An 800-microliter sample of LB broth (pH 6) containing 6′-fluoro-4′-methylumbelliferyl α-D-glucopyranoside (0.3 mg/mL) (enzyme substrate of Example 1) was added to a 1.5 mL microcentrifuge tube and the capped tube was placed in a heating block at 100° C. for 15 minutes. A metal block was placed on top of the tube to keep the cap sealed during heating. The sample was cooled to ambient temperature and then added to two wells (100 microliters per well) of a black 96-well microtiter plate with optically clear, flat bottom wells (NUNC #165301, Thermo Fisher Scientific). The top of the plate was covered with an optically clear sealing film (product #4311971, Applied Biosystems Corporation). The plate was warmed at 60° C. and shaken in a linear direction. Fluorescence readings (360 nm excitation/450 nm emission at 50% gain) were taken from the bottom of the plate. A reading was taken at an initial time point of 10 seconds and then at +1 minute intervals thereafter. A Synergy Neo2 fluorescence plate reader (BioTek Company) was used. In Table 5, the mean fluorescence values detected (RFU) at times of 10 seconds, +5 minutes, +10 minutes, and +30 minutes are reported.
as §1, with “7)” for “6)”, “6,” for “5,”
as §1, with “8)” for “6)”, “A Synergy Neo2 fluorescence plate reader (BioTek Company) was used. In Table 5, the mean fluorescence values detected (RFU) at times of 10 seconds, +5 minutes, +10 minutes, and +30 minutes are reported.” left out

MEASURED FLUORESCENCE, RFU 10 sec (pH 6 LB broth)	MEASURED FLUORESCENCE, RFU +5 min (pH 6 LB broth)	MEASURED FLUORESCENCE, RFU +10 min (pH 6 LB broth)	MEASURED FLUORESCENCE, RFU +30 min (pH 6 LB broth)	MEASURED FLUORESCENCE, RFU 10 sec (pH 7 LB broth)	MEASURED FLUORESCENCE, RFU +5 min (pH 7 LB broth)	MEASURED FLUORESCENCE, RFU +10 min (pH 7 LB broth)	MEASURED FLUORESCENCE, RFU +30 min (pH 7 LB broth)	MEASURED FLUORESCENCE, RFU 10 sec (pH 8 LB broth)	MEASURED FLUORESCENCE, RFU +5 min (pH 8 LB broth)	MEASURED FLUORESCENCE, RFU +10 min (pH 8 LB broth)	MEASURED FLUORESCENCE, RFU +30 min (pH 8 LB broth)	MEASURED FLUORESCENCE, RFU 10 sec (pH 9 LB broth)	MEASURED FLUORESCENCE, RFU +5 min (pH 9 LB broth)	MEASURED FLUORESCENCE, RFU +10 min (pH 9 LB broth)	MEASURED FLUORESCENCE, RFU +30 min (pH 9 LB broth)	SMILES
10,605 RFU	10,851 RFU	10,748 RFU	10,663 RFU	12986 RFU	13409 RFU	13403 RFU	13283 RFU	14015 RFU	14483 RFU	14494 RFU	14331 RFU	18584 RFU	19052 RFU	18990 RFU	18683 RFU	Cc1cc(=O)oc2c(F)c(O[C@H]3O[C@H](CO)[C@@H](O)[C@H](O)[C@H]3O)c(F)cc12 [Comparative Example A, 6′,8′-Difluoro-4′-methylumbelliferyl α-D-glucopyranoside]
967 RFU	909 RFU	852 RFU	782 RFU	823 RFU	790 RFU	745 RFU	670 RFU	714 RFU	685 RFU	643 RFU	567 RFU	654 RFU	622 RFU	575 RFU	500 RFU	Cc1cc(=O)oc2cc(O[C@H]3O[C@H](CO)[C@@H](O)[C@H](O)[C@H]3O)ccc12 [MUG, 4′-methylumbelliferyl-α-D-glucopyranoside]
933 RFU	852 RFU	805 RFU	758 RFU	831 RFU	777 RFU	733 RFU	673 RFU	748 RFU	705 RFU	658 RFU	579 RFU	675 RFU	625 RFU	584 RFU	530 RFU	Cc1cc(=O)oc2cc(O[C@H]3O[C@H](CO)[C@@H](O)[C@H](O)[C@H]3O)cc(F)c12 [Example 2, 5′-Fluoro-4′-methylumbelliferyl α-D-glucopyranoside]
1108 RFU	1096 RFU	1040 RFU	948 RFU	1209 RFU	1183 RFU	1130 RFU	1037 RFU	1145 RFU	1130 RFU	1092 RFU	1026 RFU	1449 RFU	1437 RFU	1388 RFU	1330 RFU	Cc1cc(=O)oc2cc(O[C@H]3O[C@H](CO)[C@@H](O)[C@H](O)[C@H]3O)c(F)cc12 [Example 1, 6′-Fluoro-4′-methylumbelliferyl α-D-glucopyranoside]
